In publication PMC9218960 (ACS infectious diseases, 2020):
Residue numbers refer to the chain shown, from its start.

Experiments:
Assay in all cases: [3H]uridine uptake inhibition by purines in PfENT1-SNP-expressing yeast
Assay type in all cases: cell-based
PfENT1 L197F = biological target: T1, PfENT1 L197F (Plasmodium falciparum, UniProt Q8IDM6, L197F)
T1 sequence (Q8IDM6 1-422 L197F): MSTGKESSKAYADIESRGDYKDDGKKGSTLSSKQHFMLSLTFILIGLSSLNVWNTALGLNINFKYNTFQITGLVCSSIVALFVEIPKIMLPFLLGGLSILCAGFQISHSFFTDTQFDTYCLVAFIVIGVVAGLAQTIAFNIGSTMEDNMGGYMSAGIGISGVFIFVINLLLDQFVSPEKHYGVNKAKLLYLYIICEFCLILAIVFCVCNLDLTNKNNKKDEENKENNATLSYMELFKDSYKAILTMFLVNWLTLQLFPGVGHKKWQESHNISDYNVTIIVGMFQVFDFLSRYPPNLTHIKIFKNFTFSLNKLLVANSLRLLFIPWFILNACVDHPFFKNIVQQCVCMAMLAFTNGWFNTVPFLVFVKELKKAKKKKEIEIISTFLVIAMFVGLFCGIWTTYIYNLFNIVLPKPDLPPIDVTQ

PfENT1 V345I = biological target: T2, PfENT1 V345I (Plasmodium falciparum, UniProt Q8IDM6, V345I)
T2 sequence (Q8IDM6 1-422 V345I): T1 sequence (Q8IDM6 1-422 L197F) with F197L, V345I

PfENT1 A351S = biological target: T3, PfENT1 A351S (Plasmodium falciparum, UniProt Q8IDM6, A351S)
T3 sequence (Q8IDM6 1-422 A351S): T1 sequence (Q8IDM6 1-422 L197F) with F197L, A351S

PfENT1 L385I = biological target: T4, PfENT1 L385I (Plasmodium falciparum, UniProt Q8IDM6, L385I)
T4 sequence (Q8IDM6 1-422 L385I): T1 sequence (Q8IDM6 1-422 L197F) with F197L, L385I

PfENT1 F36S/V129I = biological target: T5, PfENT1 F36S/V129I (Plasmodium falciparum, UniProt Q8IDM6, F36S/V129I)
T5 sequence (Q8IDM6 1-422 F36S/V129I): T1 sequence (Q8IDM6 1-422 L197F) with F36S, V129I, F197L

[1] = biological target: T6, PfENT1 F36S/V129I/L133F/P417L (Quad) (Plasmodium falciparum, UniProt Q8IDM6, F36S/L133F/P417L/V129I)
T6 sequence (Q8IDM6 1-422 F36S/V129I/L133F/P417L): T1 sequence (Q8IDM6 1-422 L197F) with F36S, V129I, L133F, F197L, P417L

Row | Compound | IC50 (PfENT1 L197F) [µM] | IC50 (PfENT1 V345I) [µM] | IC50 (PfENT1 A351S) [µM] | IC50 (PfENT1 L385I) [µM] | IC50 (PfENT1 F36S/V129I) [µM] | IC50 [1] [µM]
1 | OC[C@H]1O[C@@H](n2cnc3c(O)ncnc32)[C@H](O)[C@@H]1O [Inosine, inosine] | 37 ± 12 | 4 ± 0.2 | 26 ± 9 | 58 ± 17 | 14 ± 2 | 12 ± 1
2 | Nc1ncnc2nc[nH]c12 [Adenine, adenine] | 46 ± 5 | 225 ± 17 | 1240 ± 142 | 185 ± 15 | 333 ± 32 | 362 ± 56
3 | O=c1[nH]cnc2nc[nH]c12 [Hypoxanthine, hypoxanthine] | 282 ± 8 | 161 ± 57 | 576 ± 270 | 173 ± 46 | 107 ± 5 | 108 ± 5
